Source: ChEMBL document CHEMBL4130390, “Crystal structure of Porphyromonas gingivalis dipeptidyl peptidase 4 and structure-activity relationships based on inhibitor profiling” (Eur J Med Chem, 2017)

Columns and labels:
[1] = target: Dipeptidyl peptidase IV (Porphyromonas gingivalis) (UniProt O31048); test: Inhibition of Porphyromonas gingivalis N-terminal His-tagged DPP4 expressed in Escherichia coli at 10 uM using Gly-Pro-p-nitroanilide as substrate relative to control
[2] = target: Dipeptidyl peptidase IV (Porphyromonas gingivalis) (UniProt O31048); test: Inhibition of Porphyromonas gingivalis N-terminal His-tagged DPP4 expressed in Escherichia coli at 100 uM using Gly-Pro-p-nitroanilide as substrate relative to control
[3] = target: Dipeptidyl peptidase IV (Porphyromonas gingivalis, UniProt O31048); test: Inhibition of Porphyromonas gingivalis N-terminal His-tagged DPP4 expressed in Escherichia coli using Gly-Pro-p-nitroanilide as substrate
[4] = Selectivity index, ratio of IC50 for human DPP4 to IC50 for Porphyromonas gingivalis N-terminal His-tagged DPP4 expressed in Escherichia coli

Chain of Dipeptidyl peptidase IV (O31048 20-723 limits assumed): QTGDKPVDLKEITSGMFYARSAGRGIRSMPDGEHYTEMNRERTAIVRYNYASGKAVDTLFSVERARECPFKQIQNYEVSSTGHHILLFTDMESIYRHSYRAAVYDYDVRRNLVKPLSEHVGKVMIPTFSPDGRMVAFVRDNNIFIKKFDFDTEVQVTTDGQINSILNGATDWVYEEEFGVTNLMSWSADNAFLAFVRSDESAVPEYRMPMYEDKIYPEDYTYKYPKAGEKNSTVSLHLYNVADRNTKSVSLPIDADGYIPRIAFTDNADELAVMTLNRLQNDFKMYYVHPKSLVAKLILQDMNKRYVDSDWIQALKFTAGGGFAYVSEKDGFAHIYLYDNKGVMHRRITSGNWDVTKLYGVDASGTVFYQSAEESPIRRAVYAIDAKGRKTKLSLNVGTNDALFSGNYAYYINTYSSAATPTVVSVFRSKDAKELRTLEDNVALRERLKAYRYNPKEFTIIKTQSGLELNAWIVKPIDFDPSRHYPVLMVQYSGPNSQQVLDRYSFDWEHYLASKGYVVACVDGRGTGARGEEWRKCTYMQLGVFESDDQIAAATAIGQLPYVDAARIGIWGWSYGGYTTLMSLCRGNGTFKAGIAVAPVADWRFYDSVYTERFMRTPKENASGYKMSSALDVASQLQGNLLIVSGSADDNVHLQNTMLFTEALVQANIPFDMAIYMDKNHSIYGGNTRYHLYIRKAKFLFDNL
Chain of Dipeptidyl peptidase IV (Porphyromonas gingivalis) (O31048 20-723 limits assumed): as above

| inhibition [1] [%] | inhibition [2] [%] | IC50 [3] | IC50 ([3]; read-out: IC50) [µM] | Ratio IC50 [4] | Compound |
| --- | --- | --- | --- | --- | --- |
| > 50 | < 50 | IC50 10-100 uM |  |  | CCC(C)C(N)C(=O)N1Cc2ccc(F)cc2C1 (stereo unspecified) |
| > 50 | < 50 |  | 19 | 0.09 | NCCCCC(N)C(=O)N1CCSC1 (stereo unspecified) |
| > 50 | < 50 |  | 1.6 | 0.16 to 0.2 | N#C[C@@H]1CCCN1C(=O)[C@@H](N)CCCCN |
| > 50 | < 50 |  | 17 | > 5.9 | NC(CC(=O)N1CCN(C(c2ccccc2)c2ccc(Cl)cc2)CC1)C(=O)N1Cc2ccc(F)cc2C1 (stereo unspecified) |
| > 50 | < 50 | IC50 10-100 uM |  |  | Cc1ccc(S(=O)(=O)NCCCCC(N)C(=O)N2CCCC2)cc1 (stereo unspecified) |
| > 50 | < 50 | IC50 10-100 uM |  |  | CCC(C)C(N)C(=O)N1CCC(Cl)C1 (stereo unspecified) |
| > 50 | < 50 | IC50 10-100 uM |  |  | NC(CCCNC(=NC(=O)OCc1ccccc1)NC(=O)OCc1ccccc1)C(=O)N1CCCC1 (stereo unspecified) |
| > 50 | < 50 |  | 22 | 0.7 to 0.71 | N[C@@H](CCCCNC(=O)OCc1ccccc1)C(=O)N1CCCC1 |
| > 50 | < 50 | IC50 10-100 uM |  |  | NC(CCCCNC(=O)c1ccccc1)C(=O)N1CCCC1 (stereo unspecified) |
| > 50 | < 50 |  | 22 | 0.18 | CCC(C)C(N)C(=O)N1CCCC1 (stereo unspecified) |
| > 50 | < 50 | IC50 10-100 uM |  |  | C=C1CCN(C(=O)C(N)C(C)CC)C1 (stereo unspecified) |
| > 50 | < 50 |  | 0.48 | 1.2 | N#C[C@@H]1C[C@H](N=[N+]=[N-])CN1C(=O)[C@@H](N)CCC(=O)N1CCNCC1 |
| > 50 | < 50 | IC50 10-100 uM |  |  | CCC(C)C(N)C(=O)N1CCC(C)C1 (stereo unspecified) |
| > 50 | < 50 | IC50 10-100 uM |  |  | CS(=O)(=O)NCCCCC(N)C(=O)N1CCCC1 (stereo unspecified) |
| > 50 | < 50 | IC50 10-100 uM |  |  | NCCCCC(N)C(=O)N1Cc2ccccc2C1 (stereo unspecified) |
| > 50 | < 50 | IC50 10-100 uM |  |  | CC(=O)NCCCCC(N)C(=O)N1CCCC1 (stereo unspecified) |
| > 50 | < 50 |  | 3.4 | 0.88 | NC(CCCCN(Cc1ccccc1)Cc1ccccc1)C(=O)N1CCCC1 (stereo unspecified) |
| > 50 | < 50 | IC50 10-100 uM |  |  | N=C(N)NCCCC(N)C(=O)N1CCCC1 (stereo unspecified) |
| > 50 | < 50 | IC50 10-100 uM |  |  | O=C(C1CC(NCc2ccc3ccccc3c2)CN1)N1Cc2ccccc2C1 (stereo unspecified) |
| > 50 | < 50 |  | 19 |  | CC(C)C(N)C(=O)N1CCCC1 (stereo unspecified) |
| > 50 | < 50 | IC50 10-100 uM |  |  | C=C1CCN(C(=O)C(N)CC(=O)N2CCN(C(c3ccc(F)cc3)c3ccc(F)cc3)CC2)C1 (stereo unspecified) |

| inhibition [1] [%] | inhibition [2] [%] | IC50 [3] | IC50 ([3]; read-out: IC50) [µM] | Ratio IC50 [4] | Compound |
| --- | --- | --- | --- | --- | --- |
| > 50 | < 50 |  | 0.8 | 0.5 | N#C[C@@H]1C[C@H](N=[N+]=[N-])CN1C(=O)[C@@H](N)CCC(=O)NCCN |
| > 50 | < 50 | IC50 10-100 uM |  |  | NC(CCCCN(Cc1ccccc1)Cc1ccccc1)C(=O)N1Cc2ccccc2C1 (stereo unspecified) |
| > 50 | < 50 | IC50 10-100 uM |  |  | NC(CC(=O)N1CCN(C(c2ccc(F)cc2)c2ccc(F)cc2)CC1)C(=O)N1CCC(C(F)(F)F)C1 (stereo unspecified) |
| > 50 | < 50 | IC50 10-100 uM |  |  | CC1C[C@@H](C#N)N(C(=O)[C@@H](N)CC(=O)N2CCN(C(c3ccc(F)cc3)c3ccc(F)cc3)CC2)C1 (stereo partly specified) |
| > 50 | < 50 | IC50 10-100 uM |  |  | NC(CCCCNCc1ccc2ccccc2c1)C(=O)N1Cc2ccccc2C1 (stereo unspecified) |
| > 50 | < 50 | IC50 10-100 uM |  |  | CC[C@@H](C)[C@H](N)C(=O)N1C[C@H](N=[N+]=[N-])C[C@H]1C#N |
| > 50 | < 50 | IC50 10-100 uM |  |  | NCCNC(=O)CCC(N)Cc1ccccc1 (stereo unspecified) |
| > 50 | < 50 | IC50 10-100 uM |  |  | C=C1CC(C)N(C(=O)C(N)CCC(=O)N2CCN(C(c3ccc(F)cc3)c3ccc(F)cc3)CC2)C1 (stereo unspecified) |
| > 50 | < 50 |  | 1.5 | 0.02 | N#C[C@@H]1CCCN1C(=O)[C@@H](N)CCCCNC(=O)OCc1ccccc1 |
| > 50 | < 50 |  | 3.5 | 1.2 | NC(CCCCN(Cc1ccc2ccccc2c1)Cc1ccc2ccccc2c1)C(=O)N1CCCC1 (stereo unspecified) |
| > 50 | < 50 |  | 0.31 | 1.1 | CC[C@H](C)[C@H](N)C(=O)N1C[C@@H](N=[N+]=[N-])C[C@H]1C#N |
| > 50 | < 50 | IC50 10-100 uM |  |  | NC(C(=O)N1Cc2ccccc2C1)C1CCCCC1 (stereo unspecified) |
| > 50 | < 50 |  | 0.33 | 6.58 to 6.7 | N#C[C@@H]1C[C@H](N=[N+]=[N-])CN1C(=O)[C@@H](N)CCCCN |
| > 50 | < 50 |  | 0.58 |  | N#CC1CC(N=[N+]=[N-])CN1C(=O)C(N)CCCCN(Cc1ccc2ccccc2c1)Cc1ccc2ccccc2c1 (stereo unspecified) |
| > 50 | < 50 | IC50 10-100 uM |  |  | CCC(C)C(N)C(=O)N1CCSC1 (stereo unspecified) |
| > 50 | < 50 | IC50 10-100 uM |  |  | CCC(C)C(N)C(=O)N1Cc2ccccc2C1 (stereo unspecified) |
| > 50 | < 50 | IC50 10-100 uM |  |  | CC[C@@H](C)[C@@H](N)C(=O)N1CCC(C#N)C1 (stereo partly specified) |
| > 50 | < 50 | IC50 10-100 uM |  |  | CCCCC(N)C(=O)N1CCCC1 (stereo unspecified) |
| > 50 | < 50 |  | 9.4 | 0.52 | CNCCCCC(N)C(=O)N1CCCC1 (stereo unspecified) |
| > 50 | < 50 | IC50 10-100 uM |  |  | N#CC1CC(N=[N+]=[N-])CN1C(=O)C1CC(NCc2ccc3ccccc3c2)CN1 (stereo unspecified) |
| > 50 | < 50 |  | 8 | 0.25 | CC1CC(N=[N+]=[N-])CN1C(=O)C(N)CCC(=O)N1CCN(C(c2ccc(F)cc2)c2ccc(F)cc2)CC1 (stereo unspecified) |

| inhibition [1] [%] | inhibition [2] [%] | IC50 [3] | IC50 ([3]; read-out: IC50) [µM] | Ratio IC50 [4] | Compound |
| --- | --- | --- | --- | --- | --- |
| > 50 | < 50 | IC50 10-100 uM |  |  | NC(CCCNC(=O)OCc1ccccc1)C(=O)N1CCCC1 (stereo unspecified) |
| > 50 | < 50 | IC50 10-100 uM |  |  | NC(CCCCNC(=O)Nc1ccccc1)C(=O)N1CCCC1 (stereo unspecified) |
| > 50 | < 50 | IC50 10-100 uM |  |  | CC[C@H](C)[C@H](N)C(=O)N1CCC(F)C1 (stereo partly specified) |
| > 50 | < 50 | IC50 10-100 uM |  | < 0.002 | CC#CCn1c(N2CCNCC2)nc2c1c(=O)n(Cc1nc(C)c3ccccc3n1)c(=O)n2C |
| > 50 | < 50 | IC50 10-100 uM |  |  | CN(CCCCC(N)C(=O)N1CCCC1)Cc1ccccc1 (stereo unspecified) |
| > 50 | < 50 |  | 18 |  | N[C@@H](CC(=O)N1CCn2c(nnc2C(F)(F)F)C1)Cc1cc(F)c(F)cc1F [SITAGLIPTIN] |
| > 50 | < 50 |  | 22 | 0.17 | NC(CCCCNC(=O)OCc1ccccc1)C(=O)N1CCSC1 (stereo unspecified) |
| > 50 | < 50 | IC50 10-100 uM |  |  | CCC(C)C(N)C(=O)N1CCC(N=[N+]=[N-])C1 (stereo unspecified) |
| > 50 | < 50 | IC50 10-100 uM |  |  | NC(CC(=O)N1CCN(C(c2ccc(F)cc2)c2ccc(F)cc2)CC1)C(=O)N1Cc2ccccc2C1 (stereo unspecified) |
| > 50 | < 50 |  | 3.1 | 1.2 | NC(CCCCNCc1ccccc1)C(=O)N1CCCC1 (stereo unspecified) |
| > 50 |  |  | 29 |  | CC(C)[C@H](N)C(=O)N1CCCC1 |
| > 50 | < 50 |  | 100 |  | CC(O)C(N)C(=O)N1CCCC1 (stereo unspecified) |
| > 50 | < 50 | IC50 10-100 uM |  |  | CCC(C)C(N)C(=O)N1CC=CCC1 (stereo unspecified) |
| > 50 | < 50 | IC50 10-100 uM |  |  | N[C@@H](CC(=O)N1CCN(C(c2ccc(F)cc2)c2ccc(F)cc2)CC1)C(=O)N1CCCCC1 |
| > 50 | < 50 | IC50 10-100 uM |  |  | CCC(C)C(N)C(=O)N1CC=CC1 (stereo unspecified) |
| > 50 | < 50 | IC50 10-100 uM |  |  | CC[C@H](C)[C@H](N)C(=O)N1CCCC1 |
| > 50 | < 50 | IC50 10-100 uM |  |  | CC1CCN(C(=O)C(N)CC(=O)N2CCN(C(c3ccc(F)cc3)c3ccc(F)cc3)CC2)C1 (stereo unspecified) |
| > 50 | < 50 | IC50 10-100 uM |  |  | NC(CC(=O)N1CCN(C(c2ccccc2)c2ccc(Cl)cc2)CC1)C(=O)N1Cc2ccccc2C1 (stereo unspecified) |
| > 50 |  |  | 19 |  | CC[C@H](C)[C@H](N)C(=O)N1CCSC1 |
| > 50 |  | IC50 10-100 uM |  |  | CC[C@@H](C)[C@H](N)C(=O)N1Cc2ccccc2C1 |

| Compound | inhibition [1] [%] | inhibition [2] [%] | IC50 [3] | IC50 ([3]; read-out: IC50) [µM] | Ratio IC50 [4] |
| --- | --- | --- | --- | --- | --- |
| CC(C)[C@H](N)C(=O)N1CCCC1B(O)O (stereo partly specified) | > 50 | < 50 |  | 0.14 |  |
| NC(CCCCNC(=O)Oc1ccccc1)C(=O)N1CCCC1 (stereo unspecified) | > 50 | < 50 | IC50 10-100 uM |  |  |
